Experimental data: US20220193060A1, “Inhibition of IL-1 Induced Inflammation” (THIOLAB, LLC., priority 2019, published 2022)

Test system: wasp sting
Assay: Case: topical CPDS cream for wasp sting
Assay type: in vivo, human
Details: topical cream containing 2% CPDS by weight
Procedure: An individual was stung by a wasp on their hand. […] Application of CPDS cream was repeated after two hours and every 4 hours thereafter. The swelling and redness vanished after 24 hours.

**Q.** Which results are given for O=C(O)c1ccc(SSc2ccc(C(=O)O)cn2)nc1 [CPDS, 6,6′-dithiodinicotinic acid]?
**A.** burning and itching (person): immediate relief; time until swelling and redness vanished: 24 h
